pIC50: −log10 of the molar value.
Legend:
ULK1 kinase = molecular target: T1, ULK1 kinase (Homo sapiens, UniProt O75385, E37A/K38A); assay: Biochemical assay for ULK1.3 (coupled pyruvate kinase/lactate dehydrogenase assay, peptide substrate); conditions: 0.1 nM ULK1 (residues 1-283), 1 mM ATP
T1 construct: purchased Beryllium
T1 sequence (O75385 1-283 E37A/K38A): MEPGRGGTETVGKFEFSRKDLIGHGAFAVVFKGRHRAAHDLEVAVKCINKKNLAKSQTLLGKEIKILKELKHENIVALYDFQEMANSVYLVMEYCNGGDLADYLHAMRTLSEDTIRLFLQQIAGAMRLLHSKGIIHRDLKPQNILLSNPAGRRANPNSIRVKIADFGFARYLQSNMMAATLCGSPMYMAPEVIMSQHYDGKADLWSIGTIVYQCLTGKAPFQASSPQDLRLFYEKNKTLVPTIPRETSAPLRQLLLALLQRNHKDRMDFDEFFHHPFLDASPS
Method in brief: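 ULK1.3 activity was followed by continuous decrease in 340 nm absorbance over 6 h at 30 °C with 1% DMSO final. Rates were taken from the 2–3 h window and converted to percent inhibition against no-compound and known-inhibitor controls. IC50 values came from curve fitting.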

ULK kinase [1] = assay: pATG13 levels of mutant KRas A549 cells after treatment with ULK inhibitors in combination with trametinib (ELISA); format: cell-based, human; conditions: A549 (KRAS mutant) lung cancer cells, 250 nM trametinib, overnight, pS318-ATG13
Method in brief: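 Lysates with phosphatase/protease inhibitors assayed by pATG13 ELISA, A450 minus A540 background and blank-corrected. % ATG13 phosphorylation versus DMSO controls fitted to IC50.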

ULK kinase [2] = assay: pATG13 levels of mutant KRas MiaPaCa-2 cells after treatment with ULK inhibitors in combination with trametinib (ELISA); format: cell-based, human; conditions: MiaPaCa-2 pancreatic cancer cells, 250 nM trametinib, overnight, pS318-ATG13
Method in brief: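 MiaPaCa-2 cells in DMEM with 10% FBS and 2.5% horse serum were pretreated with trametinib or DMSO, then given a test-compound dose response overnight at 37° C. Lysates were assayed for phospho-ATG13 by ELISA (A450 minus A540 background, blank-corrected). % phosphorylation was calculated relative to controls and fitted to IC50.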

ULK kinase [3] = assay: pATG13 levels of mutant KRas HCT-116 cells after treatment with ULK inhibitors in combination with trametinib (ELISA); format: cell-based, human; conditions: HCT-116 colon cancer cells, 250 nM trametinib, overnight, pS318-ATG13
Description: The following day, 10 μL of media containing trametinib or DMSO as a control was added to wells. […] A dose response of a test compound (0.6 μL per well) was added. DMSO (0.6 μL) was added to control wells. The plate was briefly shaken to mix wells and then incubated at 37° C. overnight. The next day, the media was aspirated and cells were washed with Dulbecco's Phosphate Buffered Saline (Gibco). Cells were lysed using MPER lysis buffer (Pierce, Rockford, Ill.) containing Halt Phosphatase and Protease Inhibitors (Pierce, Rockford, Ill.) and Phosphatase inhibitor cocktail 2 (Sigma, St. Louis, Mo.) at 4° C. for 10 minutes with shaking.
(§1) Plate wells were washed with ELISA wash buffer. Cell lysate was added to wells and incubated at room temperature for 2 hours. Plate wells were washed with ELISA wash buffer. […] Plate wells were washed with ELISA wash buffer. […] Plate wells were washed with ELISA wash buffer. […] The reaction was stopped with 2N Sulfuric Acid. The plate was analyzed at on a plate reader measuring absorbance at 450 nm and 540 nm (background). Signal was calculated by first subtracting the background absorbance at 540 nm from the absorbance at 450 nm for each well. Next, the background corrected absorbance at 450 nm from blank wells was subtracted from test wells. Data was compared to control wells to determine % ATG13 phosphorylation. GraphPad Prism was used to calculate IC50 values.

ULK kinase [4] = assay: pATG13 levels of mutant HRas T24 cells after treatment with ULK inhibitors in combination with trametinib (ELISA); format: cell-based, human; conditions: T24 urinary bladder cancer cells (mutant HRas), 250 nM trametinib, overnight, pS318-ATG13
Description: T24 human urinary bladder cancer cells (25000 cells/well) were added to a 96-well tissue-culture treated plate in 100 μL of pre-warmed DMEM medium supplemented with 10% characterized fetal bovine serum (Invitrogen, Carlsbad, Calif.), 100 units/mL penicillin G, and 100 μg/mL streptomycin and allowed to grow overnight at 37° C., 5% CO2, and 95% humidity. The following day, 100 μL of media containing trametinib or DMSO as a control was added to wells. […] A dose response of a test compound (0.5 μL per well) was added. DMSO (0.5 μL) was added to control wells. The plate was briefly shaken to mix wells and then incubated at 37° C. overnight. The next day, the media was aspirated and cells were washed with Dulbecco's Phosphate Buffered Saline (Gibco). Cells were lysed using MPER lysis buffer (Pierce, Rockford, Ill.) containing Halt Phosphatase and Protease Inhibitors (Pierce, Rockford, Ill.) and Phosphatase inhibitor cocktail 2 (Sigma, St. Louis, Mo.) at 4° C. for 10 minutes with shaking.
as §1

pIC50 (ULK1 kinase): 7.60 to 9.00
pIC50 (ULK kinase [1]): 7.00 to 8.00
pIC50 (ULK kinase [2]): 7.00 to 8.00
pIC50 (ULK kinase [3]): 7.00 to 8.00
pIC50 (ULK kinase [4]): 6.52 to 7.00
SMILES: O=C1CCCCN1CCCNc1nc(Nc2ccc(N3CCNCC3)cc2C2CC2)ncc1C(F)(F)F [Example 34, 1-(3-((2-((2-cyclopropyl-4-(piperazin-1-yl)phenyl)amino)-5-(trifluoromethyl)pyrimidin-4-yl)amino)propyl)piperidin-2-one]
